# Earlier results as cited in patent publication US12616206B2, “Graphene-silver nanocomposites and uses for same as an antimicrobial composition” (ZENTEK LTD., priority 2020, dated 2026).
# What was measured:
# Conditions in all cases: literature value, source by footnote a-g
# Candida albicans = system: Candida albicans
# Vibrio cholerae = system: Vibrio cholerae
# Salmonella typhi = system: Salmonella typhi
# Streptococcus pyogenes = system: Streptococcus pyogenes
structure (smiles),measurement,setting,value
"O=[N+]([O-])[O-].[Ag+] [AgNO3, silver nitrate]",MIC,Candida albicans,4.9 ^f μg/mL
same,MIC,Vibrio cholerae,70 ^c μg/mL
same,MIC,Salmonella typhi,110 ^c μg/mL
same,MIC,Streptococcus pyogenes,80 ^c μg/mL
